“Also recorded” adds a separate entry of the source.
How the values were obtained:
[1] = Absorbance measurement of iron chelate color development, first reagent solution pH 8.0 (Example 3 / Comparative Example 1); assay type: physicochemical; conditions: aqueous iron solution 200 μg/dL; R-1 tricine pH 8.0, R-2 tricine pH 8.0; color former 0.23 mM; 37° C.
Description: (§1) [Preparation of Reagent Solution]
(§2) (R-1) First Reagent Solution:
A 100 mM tricine buffer solution (pH 8.0) containing 0.5% (w/v) polyvinylpyrrolidone (K-90) (produced by Wako Pure Chemical Industries, Ltd.) was used as the first reagent solution.
(§3) (R-2) Second Reagent Solution:
A 100 mM tricine buffer solution (pH 8.0) containing 1 mM 4S-SPF synthesized in Example 1 or 1 mM 2S-4CPF synthesized in Example 2 was used as the second reagent solution.
Aqueous ferrous ammonium sulfate solution (containing 200 μg/dL iron) was prepared and used as a sample.
(§4) [Measurement of Absorbance]
For the above-described sample, the measurement of absorbance was carried out using the reagent solution described above, and using JEOL BM6050 automatic analyzer (manufactured by JEOL Co., Ltd.) by the following measurement conditions. In addition, when the measurement of reagent blank, measurement was carried out in the same manner using physiological saline instead of the sample.
Analysis method/Reaction time: [EPA] [10]
Measurement point: [44], [47]-[95], [98].
Wavelength (secondary/dominant): [694] [596]
Sample volume: 8 μL (2 times dilution at measurement)
Measurement temperature: 37° C.
It should be noted that the concentration of 4S-SPF or 2S-4CPF at the time of measurement was 0.23 mM.
A 100 mM tricine buffer solution (pH 8.0) containing 0.5% (w/v) polyvinylpyrrolidone (K-90) was used as the first reagent solution.
A 100 mM tricine buffer solution (pH 8.0) containing 1 mM CPF was used as the second reagent solution. The CPF was synthesized according to the method described in the Mitsuru Hoshino et al., Yakugaku Zassi, 2011, vol. 131, No. 7, p. 1095-1101 (Non-Patent Literature 1), and used.
Aqueous ferrous ammonium sulfate solution (containing 200 μg/dL iron) prepared and used as a sample.
For the above-described sample, the measurement of absorbance was carried out using the reagent solution described above and using JEOL BM6050 automatic analyzer (manufactured by JEOL Co., Ltd.) by the same measurement conditions as performed in Example 3. […]

[2] = Absorbance measurement of iron chelate color development, first reagent solution pH 3.2 (Example 4 / Comparative Example 2); assay type: physicochemical; conditions: aqueous iron solution 200 μg/dL; R-1 glycine pH 3.2 (condition of serum iron measurement), R-2 tricine pH 9.0; color former 0.23 mM
Description: as §1, §2
A 10 mM glycine buffer solution (pH 3.2) containing 0.5% (w/v) polyvinylpyrrolidone (K-90) (produced by Wako Pure Chemical Industries, Ltd.) was used as the first reagent solution.
as §3
A 100 mM tricine buffer solution (pH 9.0) containing 1 mM 4S-SPF which was synthesized in Example 1 or 1 mM 2S-4CPF which was synthesized in Example 2 was used as the second reagent solution.
The sample used was same as used in Example 3.
as §4
For the above-described sample, the measurement of absorbance was carried out using the reagent solution described above and using JEOL BM6050 automatic analyzer (manufactured by JEOL Co., Ltd.) by the same measurement conditions as performed in Example 3.
It should be noted that, the concentration of 4S-SPF or 2S-4CPF at the time of measurement was 0.23 mM.
A 10 mM glycine buffer solution (pH 3.2) containing 0.5% (w/v) polyvinylpyrrolidone (K-90) was used as the first reagent solution.
A 100 mM tricine buffer solution (pH 9.0) containing 1 mM CPF was used as the second reagent solution. CPF was synthesized according to the method described in the Mitsuru Hoshino et al., Yakugaku Zassi, 2011, vol. 131, No. 7, p. 1095-1101 (Non-Patent Literature 1), and used.
The sample used was the same as used in Example 4.
For the above-described sample, the measurement of absorbance was carried out using the reagent solution described above and using JEOL BM6050 automatic analyzer (manufactured by JEOL Co., Ltd.) by the same measurement conditions as performed in Example 4.
It should be noted that, the concentration of the CPF at the time of measurement was 0.23

| color fading after color development [1] | Structure (SMILES) | color fading after color development [2] |
| --- | --- | --- |
| color fading was not confirmed | O=c1cc2oc3cc(O)c(O)cc3c(-c3ccc(S(=O)(=O)O)cc3S(=O)(=O)O)c-2cc1O [4S-SPF, 9-(2,4-disulfophenyl)-2,3,7-trihydroxy-6-fluorone] | fading after color development was not observed |
| color fading was not confirmed | O=C(O)c1ccc(-c2c3cc(O)c(=O)cc-3oc3cc(O)c(O)cc23)c(S(=O)(=O)O)c1 [2S-4CPF, 9-(4-carboxy-2-sulfophenyl)-2,3,7-trihydroxy-6-fluorone] | fading after color development was not observed |

| Structure (SMILES) | color fading after color development [1] | color fading after color development [2] |
| --- | --- | --- |
| O=C(O)c1ccccc1-c1c2cc(O)c(=O)cc-2oc2cc(O)c(O)cc12 [CPF, 9-(2-carboxyphenyl)-2,3,7-trihydroxy-6-fluorone, reference compound] | color fading after color development was observed | color fading after color development was observed; also recorded: fading after color development was remarkable |
